Assay results as given in PubChem BioAssay (NCI).
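Five compound concentrations were applied to cells in 96-well plates for 48 hours; endpoints were derived by simple linear interpolation of the resulting dose-response curve. TGI marks complete inhibition of growth.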

Assays:
Experiment in all cases: NCI tumour cell line growth inhibition, 48 h
786-0 renal = tested on: 786-0 renal
A498 renal = tested on: A498 renal
A549 NSCLC = tested on: A549 NSCLC
ACHN renal = tested on: ACHN renal
CAKI-1 renal = tested on: CAKI-1 renal
CCRF-CEM leukemia = tested on: CCRF-CEM leukemia
COLO 205 colon = tested on: COLO 205 colon
DMS 273 small cell lung = tested on: DMS 273 small cell lung
EKVX NSCLC = tested on: EKVX NSCLC
HCT-116 colon = tested on: HCT-116 colon
HCT-15 colon = tested on: HCT-15 colon
HL-60(TB) leukemia = tested on: HL-60(TB) leukemia
HOP-62 NSCLC = tested on: HOP-62 NSCLC
HOP-92 NSCLC = tested on: HOP-92 NSCLC
HT29 colon = tested on: HT29 colon
IGROV1 ovarian = tested on: IGROV1 ovarian
K-562 leukemia = tested on: K-562 leukemia
KM12 colon = tested on: KM12 colon
KM20L2 colon = tested on: KM20L2 colon
LOX IMVI melanoma = tested on: LOX IMVI melanoma
LXFL 529 NSCLC = tested on: LXFL 529 NSCLC
M14 melanoma = tested on: M14 melanoma
MOLT-4 leukemia = tested on: MOLT-4 leukemia
NCI-H226 lung = tested on: NCI-H226 lung
NCI-H23 lung = tested on: NCI-H23 lung
NCI-H460 lung = tested on: NCI-H460 lung
NCI-H522 lung = tested on: NCI-H522 lung
OVCAR-3 ovarian = tested on: OVCAR-3 ovarian
OVCAR-4 ovarian = tested on: OVCAR-4 ovarian
OVCAR-5 ovarian = tested on: OVCAR-5 ovarian
OVCAR-8 ovarian = tested on: OVCAR-8 ovarian
RPMI-8226 leukemia = tested on: RPMI-8226 leukemia
RXF 393 renal = tested on: RXF 393 renal
RXF-631 renal = tested on: RXF-631 renal
SF-268 CNS = tested on: SF-268 CNS
SF-295 CNS = tested on: SF-295 CNS
SF-539 CNS = tested on: SF-539 CNS
SK-MEL-2 melanoma = tested on: SK-MEL-2 melanoma
SK-MEL-28 melanoma = tested on: SK-MEL-28 melanoma
SK-MEL-5 melanoma = tested on: SK-MEL-5 melanoma
SN12C renal = tested on: SN12C renal
SNB-19 CNS = tested on: SNB-19 CNS
SR leukemia = tested on: SR leukemia
SW-620 colon = tested on: SW-620 colon
TK-10 renal = tested on: TK-10 renal
U251 CNS = tested on: U251 CNS
UACC-257 melanoma = tested on: UACC-257 melanoma
UACC-62 melanoma = tested on: UACC-62 melanoma
UO-31 renal = tested on: UO-31 renal
XF 498 CNS = tested on: XF 498 CNS

Measured: TGI

O=C1O[C@H](c2ccccc2)[C@@H]2CC3(CCN12)OCCO3
7.48 µM: NCI-H522 lung
> 100 µM: 786-0 renal | A498 renal | A549 NSCLC | ACHN renal | CAKI-1 renal | CCRF-CEM leukemia | COLO 205 colon | DMS 273 small cell lung | EKVX NSCLC | HCT-116 colon | HCT-15 colon | HL-60(TB) leukemia | HOP-62 NSCLC | HOP-92 NSCLC | HT29 colon | IGROV1 ovarian | K-562 leukemia | KM12 colon | KM20L2 colon | LOX IMVI melanoma | LXFL 529 NSCLC | M14 melanoma | MOLT-4 leukemia | NCI-H226 lung | NCI-H23 lung | NCI-H460 lung | OVCAR-3 ovarian | OVCAR-4 ovarian | OVCAR-5 ovarian | OVCAR-8 ovarian | RPMI-8226 leukemia | RXF 393 renal | RXF-631 renal | SF-268 CNS | SF-295 CNS | SF-539 CNS | SK-MEL-2 melanoma | SK-MEL-28 melanoma | SK-MEL-5 melanoma | SN12C renal | SNB-19 CNS | SR leukemia | SW-620 colon | TK-10 renal | U251 CNS | UACC-257 melanoma | UACC-62 melanoma | UO-31 renal | XF 498 CNS
